Measurements reported in PubChem BioAssay (NCI).
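A five-concentration, 48-hour dose response in 96-well plates underlies each endpoint, interpolated linearly between surrounding concentrations. The concentration for 50% growth inhibition is given as GI50. At the TGI there is no net growth.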

Columns and labels:
Assay in all cases: DTP human tumour cell line panel, 48 h
SNB-75 CNS = tested on: SNB-75 CNS
LOX IMVI melanoma = tested on: LOX IMVI melanoma
M14 melanoma = tested on: M14 melanoma
HCT-116 colon = tested on: HCT-116 colon
NCI-H460 lung = tested on: NCI-H460 lung
NCI-H522 lung = tested on: NCI-H522 lung
SF-539 CNS = tested on: SF-539 CNS
HCT-15 colon = tested on: HCT-15 colon
OVCAR-4 ovarian = tested on: OVCAR-4 ovarian
DU-145 prostate = tested on: DU-145 prostate

Structure (SMILES) | GI50 (SNB-75 CNS) | TGI (SNB-75 CNS) | GI50 (LOX IMVI melanoma) | TGI (LOX IMVI melanoma) | GI50 (M14 melanoma) | TGI (M14 melanoma) | GI50 (HCT-116 colon) | TGI (HCT-116 colon) | GI50 (NCI-H460 lung) | TGI (NCI-H460 lung) | GI50 (NCI-H522 lung) | TGI (NCI-H522 lung) | GI50 (SF-539 CNS) | TGI (SF-539 CNS) | GI50 (HCT-15 colon) | TGI (HCT-15 colon) | GI50 (OVCAR-4 ovarian) | TGI (OVCAR-4 ovarian) | GI50 (DU-145 prostate) | TGI (DU-145 prostate)
CCSc1ccc(C2C(Br)C(=O)N2c2cc(OC)c(OC)c(OC)c2)cc1 (stereo not drawn) | 0.509 µM | > 100 µM | 0.834 µM | 16.6 µM | 0.128 µM | 2.12 µM | 0.222 µM | 10.6 µM | 0.539 µM | 14.2 µM | 0.158 µM | 4.19 µM | 0.161 µM | 0.61 µM | 0.21 µM | 18.2 µM | 1.43 µM | 40.5 µM | 0.349 µM | > 100 µM
O=C(/C=C\c1ccccc1)N1CCc2ccccc2C1 |  | > 100 µM |  | > 100 µM |  | > 100 µM |  | > 100 µM |  | > 100 µM |  |  |  | > 100 µM |  | > 100 µM |  | > 100 µM |  | > 100 µM
O=S1Nc2c(Cl)cc(Cl)c(Cl)c2S1 (stereo not drawn) |  | > 100 µM |  | > 100 µM |  | > 100 µM |  | > 100 µM |  | > 100 µM |  | > 100 µM |  | > 100 µM |  | > 100 µM |  | > 100 µM |  | 
Cc1c(Cl)cccc1NC(=O)c1sc2nc3c(cc2c1N)CCCCC3 |  |  | 0.262 µM | 23.7 µM | 0.233 µM | > 50 µM | 0.196 µM | > 50 µM | 0.234 µM | 8 µM | 0.187 µM | 42.3 µM | 0.171 µM | 9.07 µM | 0.195 µM | > 50 µM | 5.28 µM | > 50 µM | 0.598 µM | 17.3 µM
Cn1cccc1/C=C/c1cc(Br)c(/C=C/c2cccn2C)cc1Br |  | 16.5 µM |  | 56.4 µM |  | 57.9 µM |  | 43.4 µM |  | 45.9 µM |  | 28.3 µM |  | 31.5 µM |  | 24.6 µM |  | 20.2 µM |  | 
Cc1cccc2c(O)cc(=O)oc12 |  | > 100 µM |  | > 100 µM |  | > 100 µM |  | > 100 µM |  | > 100 µM |  |  |  | > 100 µM |  |  |  | > 100 µM |  | 
CC(=O)[O-].O=C([CH-]C(=O)c1ccccc1)c1ccccc1.O=C([CH-]C(=O)c1ccccc1)c1ccccc1.[Sm+3] | 2.12 µM | 6.76 µM | 7.01 µM | 21.7 µM | 4.55 µM | 17.5 µM | 5.05 µM | 18.2 µM | 2.54 µM | 82.6 µM | 1.43 µM | 7.49 µM | 14.6 µM | 45.2 µM | 5.5 µM | 22.5 µM | 4.81 µM | 62.6 µM |  | 
CCC[CH2][Sn]1([CH2]CCC)[O]CC(C)[O]1 (stereo not drawn) | 0.57 µM | 2.3 µM | 1.23 µM | 2.66 µM | 1.87 µM | 4.87 µM | 1.78 µM | 3.43 µM | 2.94 µM | 13.9 µM | 0.306 µM | 1.07 µM | 1.46 µM | 3.46 µM | 1.1 µM | 2.35 µM | 1.59 µM | 3.45 µM |  | 
C/C=N\N1C(=O)c2ccccc2C1=O |  | > 100 µM |  | > 100 µM |  | > 100 µM |  | > 100 µM |  | > 100 µM |  |  |  | > 100 µM |  | > 100 µM |  | > 100 µM |  | 
COc1cccc2c1n([O-])c1cccc(OC)c1[n+]2=O |  |  | 5.19 µM | 27.2 µM | 7.02 µM | 26.5 µM | 3.7 µM | 64.3 µM | 3.05 µM | 14.4 µM | 5.77 µM | 28.1 µM | 7.85 µM | > 100 µM | 4.95 µM | > 100 µM |  |  | 7.97 µM | > 100 µM
O=NN(CCCl)C(=O)NC1CCC(CC2CCC(NC(=O)N(CCCl)N=O)CC2)CC1 (stereo not drawn) |  | 42.5 µM |  | 26.4 µM |  | > 100 µM |  | > 100 µM |  | > 100 µM |  | 48.3 µM |  | 25 µM |  | > 76.9 µM |  | > 100 µM |  | 
O=C(CCCCC(=O)N/N=C\c1ccccc1O)N/N=C\c1ccccc1O | 3.39 µM | 20.5 µM | 2.3 µM | > 100 µM | 3.39 µM | > 100 µM | 3.69 µM | > 100 µM | 3.14 µM | > 100 µM |  |  | 3.66 µM | > 100 µM | 2.02 µM | > 100 µM | 1.73 µM | > 100 µM | 5.22 µM | > 100 µM
Cn1c(=O)c2/c(n(C)c1=O)=N\C=c1\c(=O)n(C)c(=O)n(C)\c1=N\C=2 |  | > 100 µM |  |  |  | > 100 µM |  | > 100 µM |  | > 100 µM |  | > 100 µM |  | > 100 µM |  | > 100 µM |  | > 100 µM |  | 
CN(C)CC/C(=N\Nc1ccc(Cl)cc1Cl)c1ccccc1 |  | 20.9 µM |  | 28 µM |  | 29.1 µM |  | 27.9 µM |  | 28.3 µM |  |  |  | 35 µM |  | 24.9 µM |  |  |  | 
Oc1c(CN2CCN(c3ccccc3)CC2)cc(Br)c2cccnc12 |  | 18.1 µM |  | 17 µM |  | > 42 µM |  | > 28.4 µM |  |  |  | 36.8 µM |  | > 28.6 µM |  | > 100 µM |  | > 100 µM |  | 13.8 µM
Brc1cc2c(cc1Br)CN(c1ccccc1)C2 |  | > 100 µM |  | > 100 µM |  | > 100 µM |  | > 100 µM |  | > 100 µM |  |  |  | > 100 µM |  | > 100 µM |  | > 100 µM |  | 
CCc1cccc(C)c1NC(=O)CC1C(=O)Nc2ccccc2S1(=O)=O (stereo not drawn) |  | 31.2 µM |  | 27.3 µM |  | 72.1 µM |  | 35.4 µM |  | 27.9 µM |  | 32.5 µM |  | 24.6 µM |  | 33.8 µM |  | 29.6 µM |  | 
NNC(=O)C(=O)N/N=C(\CCC(=O)Nc1ccc(Cl)cc1)Cc1nc2ccccc2s1 |  | > 100 µM |  | 67.5 µM |  | 66.5 µM |  | > 100 µM |  | > 100 µM |  | 40.8 µM |  | 90.4 µM |  | > 100 µM |  |  |  | 
